Laboratory results taken from US6723837B1, “Nucleic acid molecule and encoded protein associated with sterol synthesis and metabolism” (Monsanto Technology LLC, priority 1999, dated 2004).

Test system: wild type yeast LPY9
Experiment: RNA abundance on yeast ORF array after ketoconazole treatment vs control without ketoconazole
Format: cell-based
Details: LPY9, 2 hr, vs untreated LPY9
Protocol: The yeast strain LPY9 (MATa, leu2, Ura3, his3) is grown overnight and inoculated into SD+ hul (histidine, uracil, leucine) media. Aliquots of the culture are treated with ketoconazole (an inhibitor of C-14α demethylase (P45014DM) enzyme) at 10 ug/ml, 50 ug/ml, and 100 ug/ml, corresponding to 10 ppm, 50 ppm, and 100 ppm, respectively. A sample of each is collected at 2, 4, and 6 hours after treatment. Control samples treated with DMSO (dimethyl sulfoxide-solvent for ketoconazole) but not with ketoconazole are also collected. Total RNA from each sample is collected by conventional methods, such as a Zirconium/Silica bead binding and extraction method. The sequence content of each sample is analyzed and compared by hybridizing each of them to a number of yeast ORF sequences immobilized on a Nylon membrane in an array format.
Table 2, below, lists the RNAs in each sample whose abundance is effected by ketoconazole treatment or whose abundance differs between wild type and the double mutant strain. The table also lists the corresponding gene or sequence identifier for those RNAs. The RNAs are ranked by the ratio of either ketocanozole vs. control or mutant vs. control, using the ratio of 50 ppm ketocanozole/control as a basis for comparison.

CC(=O)N1CCN(c2ccc(OCC3COC(Cn4ccnc4)(c4ccc(Cl)cc4Cl)O3)cc2)CC1 (centres unmarked) [ketoconazole]
K-50/CK expression level ratio: YAL001C (TFC3) (50 micro gram/ml): 0.4743
K-50/CK expression level ratio: YAL013W (DEP1) (50 micro gram/ml): 5.546
K-50/CK expression level ratio: YAL048C (50 micro gram/ml): 2.138
K-50/CK expression level ratio: YAR044W (OSH1) (50 micro gram/ml): 3.625
K-50/CK expression level ratio: YBL005W (PDR3) (50 micro gram/ml): 4.145
K-50/CK expression level ratio: YBL008W (HIR1) (50 micro gram/ml): 2.828
K-50/CK expression level ratio: YBR119W (MUD1) (50 micro gram/ml): 2.405
K-50/CK expression level ratio: YBR289W (SNF5) (50 micro gram/ml): 2.688
K-50/CK expression level ratio: YCL037C (SRO9) (50 micro gram/ml): 2.786
K-50/CK expression level ratio: YCR048W (ARE1) (50 micro gram/ml): 6.104
K-50/CK expression level ratio: YCR084C (TUP1) (50 micro gram/ml): 2.922
K-50/CK expression level ratio: YDL088C (ASM4) (50 micro gram/ml): 4.176
K-50/CK expression level ratio: YDR052C (DBF4) (50 micro gram/ml): 2.404
K-50/CK expression level ratio: YDR088C (SLU7) (50 micro gram/ml): 2.734
K-50/CK expression level ratio: YDR211W (GCD6) (50 micro gram/ml): 2.484
K-50/CK expression level ratio: YDR213W (50 micro gram/ml): 32.14
K-50/CK expression level ratio: YDR253C (MET32) (50 micro gram/ml): 0.3397
K-50/CK expression level ratio: YDR264C (AKR1) (50 micro gram/ml): 2.198
K-50/CK expression level ratio: YDR389W (SAC7) (50 micro gram/ml): 4.561
K-50/CK expression level ratio: YDR422C (SIP1) (50 micro gram/ml): 2.187
K-50/CK expression level ratio: YFL054C (50 micro gram/ml): 0.4794
K-50/CK expression level ratio: YFR009W (GCN20) (50 micro gram/ml): 2.486
K-50/CK expression level ratio: YFR034C (PHO4) (50 micro gram/ml): 11.22
K-50/CK expression level ratio: YGL001C (50 micro gram/ml): 2.821
K-50/CK expression level ratio: YGL014W (50 micro gram/ml): 3.229
K-50/CK expression level ratio: YGL071W (RCS1) (50 micro gram/ml): 3.696
K-50/CK expression level ratio: YGL112C (TAF60) (50 micro gram/ml): 2.077
K-50/CK expression level ratio: YGL192W (IME4) (50 micro gram/ml): 3.17
K-50/CK expression level ratio: YGR177C (ATF2) (50 micro gram/ml): 11.83
K-50/CK expression level ratio: YGR270W (YTA7) (50 micro gram/ml): 2.406
K-50/CK expression level ratio: YHL027W (RIM101) (50 micro gram/ml): 2.103
K-50/CK expression level ratio: YIL084C (SDS3) (50 micro gram/ml): 5.543
K-50/CK expression level ratio: YIR017C (MET28) (50 micro gram/ml): 0.3775
K-50/CK expression level ratio: YJL127C (SPT10) (50 micro gram/ml): 7.839
K-50/CK expression level ratio: YJR017C (ESS1) (50 micro gram/ml): 3.559
K-50/CK expression level ratio: YJR019C (TES1) (50 micro gram/ml): 2.83
K-50/CK expression level ratio: YKR034W (DAL80) (50 micro gram/ml): 5.044
K-50/CK expression level ratio: YLR098C (CHA4) (50 micro gram/ml): 4.756
K-50/CK expression level ratio: YLR120C (YAP3) (50 micro gram/ml): 3.623
K-50/CK expression level ratio: YLR153C (ACS2) (50 micro gram/ml): 3.379
K-50/CK expression level ratio: YLR249W (YEF3) (50 micro gram/ml): 3.145
K-50/CK expression level ratio: YMR019W (STB4) (50 micro gram/ml): 3.441
K-50/CK expression level ratio: YMR037C (MSN2) (50 micro gram/ml): 6.424
K-50/CK expression level ratio: YMR047C (NUP116) (50 micro gram/ml): 3.17
K-50/CK expression level ratio: YMR080C (NAM7) (50 micro gram/ml): 2.183
K-50/CK expression level ratio: YMR146C (TIF34) (50 micro gram/ml): 0.2248
K-50/CK expression level ratio: YNR019W (ARE2) (50 micro gram/ml): 1.791
K-50/CK expression level ratio: YOL067C (RTG1) (50 micro gram/ml): 10.03
K-50/CK expression level ratio: YOR127W (RGA1) (50 micro gram/ml): 2.532
K-50/CK expression level ratio: YOR237W (HES1) (50 micro gram/ml): 1418
K-50/CK expression level ratio: YOR337W (TEA1) (50 micro gram/ml): 2.979
K-50/CK expression level ratio: YPL028W (ERG10) (50 micro gram/ml): 2.019
K-50/CK expression level ratio: YPL119C (DBP1) (50 micro gram/ml): 3.246
K-50/CK expression level ratio: YPL226W (50 micro gram/ml): 2.889
K-50/CK expression level ratio: YPL237W (SUI3) (50 micro gram/ml): 2.563
K-50/CK expression level ratio: YPR080W (TEF1) (50 micro gram/ml): 2.212
K-100/CK expression level ratio: YAL001C (TFC3) (100 micro gram/ml): 1.192
K-100/CK expression level ratio: YAL013W (DEP1) (100 micro gram/ml): 6.425
K-100/CK expression level ratio: YAL048C (100 micro gram/ml): 4.221
K-100/CK expression level ratio: YAR044W (OSH1) (100 micro gram/ml): 3.884
K-100/CK expression level ratio: YBL005W (PDR3) (100 micro gram/ml): 6.083
K-100/CK expression level ratio: YBL008W (HIR1) (100 micro gram/ml): 2.887
K-100/CK expression level ratio: YBR119W (MUD1) (100 micro gram/ml): 1.399
K-100/CK expression level ratio: YBR289W (SNF5) (100 micro gram/ml): 3.039
K-100/CK expression level ratio: YCL037C (SRO9) (100 micro gram/ml): 2.394
K-100/CK expression level ratio: YCR048W (ARE1) (100 micro gram/ml): 10.53
K-100/CK expression level ratio: YCR084C (TUP1) (100 micro gram/ml): 3.272
K-100/CK expression level ratio: YDL088C (ASM4) (100 micro gram/ml): 3.321
K-100/CK expression level ratio: YDR052C (DBF4) (100 micro gram/ml): 1.583
K-100/CK expression level ratio: YDR088C (SLU7) (100 micro gram/ml): 2.688
K-100/CK expression level ratio: YDR211W (GCD6) (100 micro gram/ml): 1.824
K-100/CK expression level ratio: YDR213W (100 micro gram/ml): 58.36
K-100/CK expression level ratio: YDR253C (MET32) (100 micro gram/ml): 0.3279
K-100/CK expression level ratio: YDR264C (AKR1) (100 micro gram/ml): 2.752
K-100/CK expression level ratio: YDR389W (SAC7) (100 micro gram/ml): 4.314
K-100/CK expression level ratio: YDR422C (SIP1) (100 micro gram/ml): 2.084
K-100/CK expression level ratio: YFL054C (100 micro gram/ml): 0.6137
K-100/CK expression level ratio: YFR009W (GCN20) (100 micro gram/ml): 2.161
K-100/CK expression level ratio: YFR034C (PHO4) (100 micro gram/ml): 20.84
K-100/CK expression level ratio: YGL001C (100 micro gram/ml): 1.985
K-100/CK expression level ratio: YGL014W (100 micro gram/ml): 3.638
K-100/CK expression level ratio: YGL071W (RCS1) (100 micro gram/ml): 4.531
K-100/CK expression level ratio: YGL112C (TAF60) (100 micro gram/ml): 2.189
K-100/CK expression level ratio: YGL192W (IME4) (100 micro gram/ml): 6.478
K-100/CK expression level ratio: YGR177C (ATF2) (100 micro gram/ml): 12.56
K-100/CK expression level ratio: YGR270W (YTA7) (100 micro gram/ml): 1.946
K-100/CK expression level ratio: YHL027W (RIM101) (100 micro gram/ml): 2.593
K-100/CK expression level ratio: YIL084C (SDS3) (100 micro gram/ml): 6.907
K-100/CK expression level ratio: YIR017C (MET28) (100 micro gram/ml): 0.3009
K-100/CK expression level ratio: YJL127C (SPT10) (100 micro gram/ml): 10.1
K-100/CK expression level ratio: YJR017C (ESS1) (100 micro gram/ml): 3.221
K-100/CK expression level ratio: YJR019C (TES1) (100 micro gram/ml): 2.072
K-100/CK expression level ratio: YKR034W (DAL80) (100 micro gram/ml): 7.284
K-100/CK expression level ratio: YLR098C (CHA4) (100 micro gram/ml): 5.587
K-100/CK expression level ratio: YLR120C (YAP3) (100 micro gram/ml): 4.43
K-100/CK expression level ratio: YLR153C (ACS2) (100 micro gram/ml): 3.129
K-100/CK expression level ratio: YLR249W (YEF3) (100 micro gram/ml): 2.632
K-100/CK expression level ratio: YMR019W (STB4) (100 micro gram/ml): 3.398
K-100/CK expression level ratio: YMR037C (MSN2) (100 micro gram/ml): 7.661
K-100/CK expression level ratio: YMR047C (NUP116) (100 micro gram/ml): 4.774
K-100/CK expression level ratio: YMR080C (NAM7) (100 micro gram/ml): 2.171
K-100/CK expression level ratio: YMR146C (TIF34) (100 micro gram/ml): 0.7194
K-100/CK expression level ratio: YNR019W (ARE2) (100 micro gram/ml): 2.854
K-100/CK expression level ratio: YOL067C (RTG1) (100 micro gram/ml): 27.37
K-100/CK expression level ratio: YOR127W (RGA1) (100 micro gram/ml): 2.57
K-100/CK expression level ratio: YOR139C (SFL1) (100 micro gram/ml): 11.76
K-100/CK expression level ratio: YOR237W (HES1) (100 micro gram/ml): 1358
K-100/CK expression level ratio: YOR337W (TEA1) (100 micro gram/ml): 4.823
K-100/CK expression level ratio: YPL028W (ERG10) (100 micro gram/ml): 1.699
K-100/CK expression level ratio: YPL119C (DBP1) (100 micro gram/ml): 2.197
K-100/CK expression level ratio: YPL226W (100 micro gram/ml): 2.556
K-100/CK expression level ratio: YPL237W (SUI3) (100 micro gram/ml): 2.548
K-100/CK expression level ratio: YPR080W (TEF1) (100 micro gram/ml): 1.859
